Laboratory results taken from patent publication US20110015080A1, “Solution-based methods for RNA expression profiling” (MASSACHUSETTS INSTITUTE OF TECHNOLOGY, priority 2005, published 2011).
Several values for one entry are separate records, joined by “and”; a condition that tells them apart may be missing. Identical values can stand only once.

Tested on: HL60 (human promyelocytic leukemia) cells
Assay: LMA-FlexMAP analysis of microtiter well cultures of HL60 cells treated with tretinoin or DMSO, KNN classification
[1] = HL60 cells treated with tretinoin, Experiment 3, replicate samples
[2] = HL60 microtiter plate wells tretinoin40-47 (replicates)

CC1=C(/C=C/C(C)=C/C=C/C(C)=C/C(=O)O)C(C)(C)CCC1 [tretinoin, all-trans-retinoic acid]
FlexMap signal, ACTB (LUA#91) [1]: 2538 and 2604.5 and 452 and 812 and 1191 and 2112.5 and 2760 and 2845 and 2391 and 144.5
FlexMap signal, GAPDH_3 (LUA#95) [1]: 2330.5 and 2534 and 579 and 1017 and 1438 and 2495.5 and 2680 and 2718 and 2148 and 172
FlexMap signal, GAPDH_5 (LUA#93) [1]: 1699 and 1739.5 and 261.5 and 439.5 and 741 and 1388 and 1787 and 1865 and 1714 and 97
FlexMap signal, GAPDH_M (LUA#94) [1]: 1342.5 and 1462 and 221.5 and 396 and 590.5 and 1179.5 and 1602 and 1586 and 1267.5 and 79
FlexMap signal, NM_000147 (LUA#29) [1]: 987 and 1072 and 95 and 188.5 and 323 and 713 and 1109 and 1156 and 905 and 43
FlexMap signal, NM_000211 (LUA#39) [1]: 1072 and 1160 and 204.5 and 356 and 501 and 939 and 1215 (2×) and 924.5 and 109
FlexMap signal, NM_000250 (LUA#87) [1]: 141 and 157 and 46 and 52 and 67 and 115 and 159 and 166 and 131 and 38
FlexMap signal, NM_000414 (LUA#22) [1]: 384 and 448 and 48 and 74 and 114 and 272.5 and 479 and 477.5 and 378 and 35
FlexMap signal, NM_000433 (LUA#28) [1]: 454 and 548 and 62 and 105 and 169 and 371.5 and 580.5 and 600.5 and 406 and 32
FlexMap signal, NM_000584 (LUA#30) [1]: 1878.5 and 1840 and 240 and 426 and 663 and 1369.5 and 1886 and 1908.5 and 1555 and 96.5
FlexMap signal, NM_000884 (LUA#81) [1]: 670 and 692 and 126 and 209 and 304 and 612 and 794.5 and 804 and 624 and 58
FlexMap signal, NM_001034 (LUA#67) [1]: 170 and 171 and 42 and 47 and 73 and 122 and 178 and 184 and 155 and 33
FlexMap signal, NM_001101 (LUA#34) [1]: 2622 and 2644 and 799 and 1279 and 1711 and 2759.5 and 2895 and 2880 and 2335 and 235
FlexMap signal, NM_001469 (LUA#79) [1]: 988.5 and 1104 and 141.5 and 246.5 and 395 and 731.5 and 1124 and 1134 and 921 and 75.5
FlexMap signal, NM_001498 (LUA#18) [1]: 397 and 391.5 and 40 and 71 and 121 and 262 and 386 and 382 and 279 and 30
FlexMap signal, NM_001684 (LUA#23) [1]: 52.5 and 60 (2×) and 30 and 31.5 and 31 and 52 and 66 and 49 and 25
FlexMap signal, NM_001948 (LUA#84) [1]: 63 and 62 and 34 and 38 (2×) and 50 and 61 and 59 and 54 and 33
FlexMap signal, NM_002166 (LUA#25) [1]: 169.5 and 207 and 37 and 51 and 74 and 132 and 188.5 and 211 and 170 and 29
FlexMap signal, NM_002467 (LUA#90) [1]: 571 and 552.5 and 136 and 162 and 239 and 409.5 and 576 and 644 and 527 and 86
FlexMap signal, NM_002468 (LUA#40) [1]: 367 and 421 and 57.5 and 93 and 132.5 and 303 and 450 and 473.5 and 357 and 36.5
FlexMap signal, NM_002539 (LUA#74) [1]: 276 and 278.5 and 46 and 74 and 209 and 271 and 323.5 and 225 and 36
FlexMap signal, NM_002624 (LUA#36) [1]: 1359 and 1343 and 253.5 and 500 and 700.5 and 1234 and 1402 and 1395 and 1167.5 and 79
FlexMap signal, NM_002664 (LUA#38) [1]: 1922 and 1934 and 383 and 702 and 1051.5 and 1832 and 2052 and 2064 and 1635.5 and 101
FlexMap signal, NM_002970 (LUA#42) [1]: 1316 and 1443 and 164 and 329 and 528 and 1106 and 1508 and 1570.5 and 1247 and 57
FlexMap signal, NM_002982 (LUA#45) [1]: 3449 and 3440 and 1175 and 1759 and 2328 and 3359 and 3548 and 3612.5 and 3101 and 373
FlexMap signal, NM_003132 (LUA#68) [1]: 431 and 428 and 74 and 117.5 and 194 and 367 and 461 and 482 and 344 and 38
FlexMap signal, NM_003172 (LUA#19) [1]: 208 and 227 and 45 and 68 and 97 and 199 and 234 and 250 and 179 and 33
FlexMap signal, NM_003332 (LUA#43) [1]: 2312 and 2346.5 and 591 and 1003 and 1446 and 2239 and 2492 and 2467 and 2041 and 177.5
FlexMap signal, NM_003581 (LUA#62) [1]: 40.5 and 39.5 and 40 (2×) and 36 and 42 and 47 and 46.5 and 46 and 33
FlexMap signal, NM_003644 (LUA#17) [1]: 181.5 and 53 and 72 and 75.5 and 220 and 238.5 and 179 and 39
FlexMap signal, NM_003752 (LUA#82) [1]: 116 and 113 and 54 (2×) and 66 and 93 and 105 and 123 and 96 and 41
FlexMap signal, NM_003879 (LUA#24) [1]: 65 and 69 and 23 and 29 and 36 and 51 and 77 and 76 and 59 and 34
FlexMap signal, NM_004079 (LUA#21) [1]: 113 and 124 (2×) and 34 and 41 and 53 and 88 and 122 and 121 and 30
FlexMap signal, NM_004095 (LUA#59) [1]: 169 and 205 and 46 and 66 and 86.5 and 166.5 and 221 and 208.5 and 147 and 36
FlexMap signal, NM_004106 (LUA#44) [1]: 1458 and 1423 and 235 and 457 and 672 and 1276 and 1500 and 1506 and 1234 and 68
FlexMap signal, NM_004134 (LUA#76) [1]: 268 and 286 and 47.5 and 67 and 93 and 182 and 284 and 297 and 240 and 36
FlexMap signal, NM_004152 (LUA#31) [1]: 1845 and 1993 and 319 and 601 and 837 and 1645 and 2020 and 2157.5 and 1685 and 90.5
FlexMap signal, NM_004526 (LUA#88) [1]: 153.5 and 172 and 43 and 61 and 76.5 and 187.5 and 191 and 138 and 37
FlexMap signal, NM_004602 (LUA#32) [1]: 255 and 274.5 and 61 and 87.5 and 116 and 185 and 270 and 293 and 288 and 46
FlexMap signal, NM_004723 (LUA#20) [1]: 281 and 329 and 61 and 105 and 151 and 271.5 and 350 and 352 and 258 and 37
FlexMap signal, NM_004741 (LUA#89) [1]: 397 and 326 and 70 and 77 and 131 and 204.5 and 315 and 415.5 and 300.5 and 58
FlexMap signal, NM_004759 (LUA#37) [1]: 242 and 139.5 and 32 and 41 and 60 and 119 and 132.5 and 213 and 159 and 28
FlexMap signal, NM_005008 (LUA#77) [1]: 242 and 301.5 and 53.5 and 87 and 114 and 239.5 and 315 and 316 and 232 and 41
FlexMap signal, NM_005375 (LUA#86) [1]: 548 and 553 and 131 and 196 and 334 and 547.5 and 602 and 531 and 86
FlexMap signal, NM_005566 (LUA#85) [1]: 539.5 and 610.5 and 89 and 117 and 183 and 197.5 and 597 and 632 and 489 and 45
FlexMap signal, NM_005914 (LUA#60) [1]: 525.5 and 804.5 and 102 and 218.5 and 314 and 594 and 914 and 889 and 716.5 and 44
FlexMap signal, NM_005915 (LUA#72) [1]: 46 and 42 and 25 and 27 and 30 and 35 and 40 and 37 and 38 and 29
FlexMap signal, NM_005952 (LUA#66) [1]: 204 and 199 and 43 and 56 and 74 and 143 and 200 and 197.5 and 156 and 34
FlexMap signal, NM_005980 (LUA#73) [1]: 160 and 157 (2×) and 32 and 43 and 52 and 102.5 and 166 and 132 and 34
FlexMap signal, NM_006019 (LUA#35) [1]: 810 and 792 and 73 and 140 and 227 and 497 and 747 and 787.5 and 655 and 34
FlexMap signal, NM_006138 (LUA#56) [1]: 87 and 95 and 37 and 40 and 49 and 67 and 97 and 102.5 and 86 and 38
FlexMap signal, NM_006432 (LUA#27) [1]: 1364 and 1394 and 190 and 358.5 and 574 and 1118 and 1397.5 and 1403 and 1160 and 68
FlexMap signal, NM_006452 (LUA#71) [1]: 52 and 60 and 25 and 37 and 37.5 and 43 and 57 and 71 and 44 and 23.5
FlexMap signal, NM_006985 (LUA#58) [1]: 48 and 59 (2×) and 31 and 32 and 37.5 and 45.5 and 52 and 46.5 and 30
FlexMap signal, NM_007282 (LUA#16) [1]: 46 and 62.5 and 27 and 29 and 30 and 42 and 53 and 61.5 and 58 and 28
FlexMap signal, NM_014333 (LUA#26) [1]: 613 and 656.5 and 74 and 128 and 211 and 427 and 674 and 705 and 572 and 41
FlexMap signal, NM_014366 (LUA#61) [1]: 217 and 294 and 38 and 61 and 89.5 and 191 and 291.5 and 299.5 and 235 and 33.5
FlexMap signal, NM_014573 (LUA#70) [1]: 138.5 and 144.5 and 40 and 45 and 56 and 93 and 156 and 161.5 and 123 and 38.5
FlexMap signal, NM_015201 (LUA#57) [1]: 208 and 198 and 40 and 49 and 64 and 139 and 197 and 228 and 156 and 31
FlexMap signal, NM_018115 (LUA#63) [1]: 1217 and 860.5 and 109.5 and 234 and 409 and 710.5 and 896 and 1206.5 and 927 and 61
FlexMap signal, NM_018164 (LUA#69) [1]: 148.5 and 149 and 37 and 46 and 67 and 139 and 150 and 156.5 and 133 and 36
FlexMap signal, NM_018256 (LUA#83) [1]: 638.5 and 688.5 and 178.5 and 177 and 268 and 371 and 633 and 804.5 and 779 and 151
FlexMap signal, NM_018890 (LUA#33) [1]: 737 and 769 and 82 and 151.5 and 240 and 534.5 and 760 and 762 and 652 and 41
FlexMap signal, NM_019058 (LUA#75) [1]: 102 and 129 and 37 and 48 and 56 and 90 and 126 and 97 and 34
FlexMap signal, NM_020117 (LUA#78) [1]: 487 and 502 and 65 and 114 and 184 and 371 and 519 and 543 and 415 and 45
FlexMap signal, NM_021103 (LUA#41) [1]: 629 and 2096 and 467.5 and 781.5 and 992 and 1953 and 2465.5 and 2408 and 495 and 142
FlexMap signal, NM_021203 (LUA#80) [1]: 445.5 and 471 and 65 and 109 and 165 and 355 and 480 and 514 and 369 and 46
FlexMap signal, NM_021974 (LUA#64) [1]: 776 and 891 and 136.5 and 255.5 and 403 and 781.5 and 929 and 940 and 667.5 and 55
FlexMap signal, NM_024045 (LUA#65) [1]: 112 and 127.5 and 35 and 40 and 57 and 92.5 and 135.5 and 110 and 29
FlexMap signal, TFRC (LUA#92) [1]: 252 and 255 and 54 and 66 and 90 and 168 and 256 and 272 and 213 and 45
ACTB LUA#91 FlexMap level [2]: 344 and 2113 and 2976 and 3020 and 2200 and 2601 and 2521 and 1195
GAPDH_3 LUA#95 FlexMap level [2]: 1659 and 3754 and 4065 and 4240 and 3880 and 3379 and 3353.5 and 1707.5
GAPDH_5 LUA#93 FlexMap level [2]: 238 and 1501 and 2205.5 and 2064 and 1482 and 1768.5 and 1737 and 843
GAPDH_M LUA#94 FlexMap level [2]: 642 and 3318 and 3783.5 and 3886 and 3205 and 3303 and 3248 and 1513
NM_000070 LUA#2 FlexMap level [2]: 84.5 and 400 and 756 and 769.5 and 717.5 and 638.5 and 741 and 490.5
NM_000147 LUA#29 FlexMap level [2]: 48 and 184 and 276.5 and 330.5 and 274 and 275 and 318 and 288
NM_000153 LUA#10 FlexMap level [2]: 35 and 90 and 138 (2×) and 150 and 120 and 171.5 and 223
NM_000211 LUA#39 FlexMap level [2]: 81 and 598.5 and 1229 and 1162.5 and 868 and 1061 and 973 and 440.5
NM_000250 LUA#87 FlexMap level [2]: 261.5 and 1504 and 2135 and 2243 and 1820 and 2094 and 1863 and 1124
NM_000414 LUA#22 FlexMap level [2]: 79.5 and 477 and 902 and 920 and 503 and 800 and 838 and 646
NM_000433 LUA#28 FlexMap level [2]: 53 and 234 and 451.5 and 466 and 318 and 421 and 370.5 and 244.5
NM_000584 LUA#30 FlexMap level [2]: 45 and 189 and 470 and 461 and 435 and 379 and 597 and 352
NM_000632 LUA#12 FlexMap level [2]: 60 and 298 and 544 and 994 and 932 and 486 and 500 and 525.5
